Experiments:
[1] = tested on: TNF-α in RAW264.7 macrophages stimulated by lipopolysaccharide; assay: TNF-α ELISA in cell supernatant of LPS-stimulated RAW264.7 macrophages; type: cell-based, mice; details: 10 μM; for activity at 10 µM: Mus musculus, RAW264.7, 2 h, 3 h pretreatment, LPS 100 ng/mL 2 h, RAW264.7, read-out: Percentage of TNF-α in a model group (%)
Procedure: RAW264.7 cells were inoculated into a 96-well plate at a density of 1×10^5 per well. When the cell density was 70%-80%, 18 balasubramide derivatives were prepared into 10 mM working solutions with DMSO, respectively, and then used to pretreat mononuclear macrophages RAW264.7 of mice at a final concentration of 10 μM. After 3 h, lipopolysaccharide (LPS, 100 ng/mL) was added into all wells for action for 2 h except for a control group. A supernatant was collected for later use, and the expression level of an inflammatory factor TNF-α in the cell supernatant was detected according to an operation instruction of a commercial ELISA kit.
RAW264.7 cells were inoculated into a 96-well plate at a density of 1×10^5 per well. When the cell density was 70%-80%, the RAW264.7 cells were pretreated with (+)3C-20 ([…]). After 3 h, lipopolysaccharide (LPS, 100 ng/mL) was added into all wells for action for 2 h except for a control group. The expression level of an inflammatory factor TNF-α in a cell supernatant was detected according to an operation instruction of a commercial ELISA kit, and the cell viability at different administration concentrations of (+)3C-20 was determined according to an operation instruction of a CCK-8 kit.

[2] = tested on: RAW264.7 cells; assay: Cytotoxicity test, CCK-8 cell viability of RAW264.7 cells (24 h); type: cell-based, mice; details: 10 μM, RAW264.7 cell viability
Procedure: RAW264.7 cells were inoculated into a 96-well plate at a density of 1×10^5 per well. When the cell density was 70%-80%, the RAW264.7 cells were pretreated with 10 mM working solutions prepared from 18 balasubramide derivatives at a final concentration of 10 μM for 24 h, and then the cell viability was determined by a CCK-8 method.

[3] = tested on: mice with sepsis and lung injury caused by intraperitoneal injection of lipopolysaccharide; assay: Acute lung injury caused by sepsis (intraperitoneal injection of lipopolysaccharide); type: in vivo, ICR mice
Procedure: Administration and grouping of animals: Male ICR mice were used as experimental animals, which were randomly divided into a control group, a model group, a positive administration group and administration groups according to the body weight. The control group and the model group were administered with a solvent by intraperitoneal injection (the solvent was prepared from DMSO, Kolliphor HS15 and Saline at a ratio of 1:2:7), the positive administration group was administered with 5 mg/kg dexamethasone (DEX) by intraperitoneal injection, and the administration groups were administered with (+)3C-20 at a concentration of 10 mg/kg and 50 mg/kg, respectively, by intraperitoneal injection. The dexamethasone and the (+)3C-20 were dissolved in the above solvent and were clear and transparent. The administration was continued for 3 days. 2 h after the last administration, all the other groups were administered with LPS (10 mg/kg) by intraperitoneal injection while the control group was administered with an equal volume of normal saline by intraperitoneal injection. Body weight and lung index: The mice were weighed and randomly divided on day 1 and continuously weighed for 3 days before administration, and growth conditions of the mice were measured by statistics. The mice were administered with LPS by intraperitoneal injection 2 h after administration on day 3, then the mice were dissected 6 h later, and the lungs were taken, weighed and recorded.
On day 3, 6 h after the intraperitoneal injection of LPS, whole blood was collected from eye sockets and then subjected to centrifugation to prepare serum, and the serum was frozen at −80° C. The lungs were subjected to perfusion with PBS and fixed by paraformaldehyde, and the fixed lungs were stained with hematoxylin-eosin (H&E) after dehydration, paraffin embedding and sectioning. The serum was tested by a commercial TNF-α ELISA kit. Histopathological results and data statistics are shown in FIG. 7-1, FIG. 7-2 and Table 7.
A small amount of frozen lung tissues were taken and fully ground, and the expression of inflammation related genes in the lung tissues was detected by an RT-PCR technology according to an operation instruction of an RNA extraction kit.

[4] = tested on: mice with acute lung injury caused by intratracheal instillation of lipopolysaccharide; assay: Acute lung injury caused by lung exposure to bacterial endotoxin (intratracheal instillation of LPS); type: in vivo, ICR mice
Procedure: Grouping, administration and modeling of animals: Male ICR mice were used as experimental animals, which were randomly divided into a control group, a model group, a positive administration group and administration groups according to the body weight. The control group and the model group were administered with a solvent by intraperitoneal injection (the solvent was prepared from DMSO, Kolliphor HS15 and Saline at a ratio of 1:2:7), the positive administration group was administered with 5 mg/kg dexamethasone by intraperitoneal injection, and the administration groups were administered with (+)3C-20 at a concentration of 10 mg/kg and 50 mg/kg, respectively, by intraperitoneal injection. The dexamethasone and the (+)3C-20 were dissolved in the above solvent and were clear and transparent. The administration was continued for 3 days. 2 h after the last administration, the mice were anesthetized with 2.5% isoflurane, necks were disinfected, cortices of the necks were cut, and tracheae were separated. All other groups were administered with 50 μL of 10 mg/mL LPS (LPS dissolved in Saline) at a dose of 20 mg/kg by instillation while the control group was administered with 50 μL of Saline by intratracheal instillation (it.), and the cortices were sutured. 6 h after the instillation of LPS, the mice were sacrificed, and serum and lung tissues were taken for later use. Body weight and lung index: The mice were weighed and randomly divided on day 1 and continuously weighed for 3 days before administration. 2 h after the last administration, the mice were administered with 50 μL of […] LPS by intratracheal instillation. 6 h later, the mice were dissected, and the lungs were taken and weighed.
On day 3, 6 h after the intratracheal instillation of LPS, a part of the mice were subjected to perfusion with PBS and treated with paraformaldehyde to fix the right lobe of the lungs, another part of the mice were dissected to obtain lungs, and the lungs were frozen with liquid nitrogen for later use. The fixed right lungs were stained with hematoxylin-eosin (H&E) after dehydration, paraffin embedding and sectioning. 40 mg of the frozen lungs were cut, 300 μL of an RIPA lysis buffer was added thereto and homogenized by starting for 45 s and stopping for 15 s at a frequency of 60 Hz in 4 cycles for full lysis, and then centrifuged at 12,000 rpm at 4° C. A supernatant was taken, the protein concentration was calibrated and adjusted with a BCA protein assay kit, and then the level of an inflammatory factor TNF-α in lung tissue homogenates of various groups was detected by a commercial TNF-α ELISA kit. Results are shown in Table 10, FIG. 10-1 and FIG. 10-2.
A small amount of frozen lung tissues were taken, a Trizol lysis reagent was added thereto and fully ground, RNA was extracted according to an operation instruction of an RNA extraction kit, and the expression of inflammation related genes in the lung tissues was detected by an RT-PCR technology. Experimental results are shown in Table 11, FIG. 11-1 and FIG. 11-2.

[5] = 5 mg/kg i.p., lung tissue RT-PCR, i.p. LPS
[6] = 5 mg/kg intraperitoneal, i.p. LPS sepsis model, in g (unit assumed)
[7] = 5 mg/kg i.p., lung tissue RT-PCR, intratracheal LPS
[8] = 5 mg/kg intraperitoneal, intratracheal LPS model, in g (unit assumed)

## O=C(CCc1ccc(C(F)(F)F)cc1)O[C@@H]1C(=O)NCCc2c([nH]c3ccccc23)[C@H]1c1ccc(C(F)(F)F)cc1 (racemic) [(±)-3C-20]
[1]; RAW264.7, LPS
  anti-inflammatory activity (inhibition of expression of TNF-α in macrophages), in words: better anti-inflammatory activity than other derivatives

## CCOc1ccc2[nH]c3c(c2c1)CCNC(=O)[C@@H](OC(=O)CCc1ccc(C(F)(F)F)cc1)[C@@H]3c1ccc(C(F)(F)F)cc1 [(+)-D7a]
[2]
  Percentage of CCK-8 in a model group (%): 106.69 ± 1.21%
[1]
  activity at 10 µM: 97.7 ± 1.5%

## O=C(CCc1ccc(C(F)(F)F)cc1)O[C@@H]1C(=O)NCCc2c([nH]c3ccc(OCc4ccccc4)cc23)[C@H]1c1ccc(C(F)(F)F)cc1 [(+)-B3h]
[2]
  Percentage of CCK-8 in a model group (%): 99.75 ± 1.27%
[1]
  activity at 10 µM: 66.1%

## COc1ccc2[nH]c3c(c2c1)CCNC(=O)[C@@H](OC(=O)CCc1ccc(C(F)(F)F)cc1)[C@@H]3c1ccc(C(F)(F)F)cc1 [(+)-B3c]
[2]
  Percentage of CCK-8 in a model group (%): 96.16 ± 4.12%
[1]
  activity at 10 µM: 84.5%

## O=C(CCc1ccc(C(F)(F)F)cc1)O[C@@H]1C(=O)NCCc2c([nH]c3ccc(Br)cc23)[C@H]1c1ccc(C(F)(F)F)cc1 [(+)-B3e]
[2]
  Percentage of CCK-8 in a model group (%): 95.66 ± 4.02%
[1]
  activity at 10 µM: 76.2%

## C=CCn1c2c(c3ccccc31)CCNC(=O)[C@@H](OC(=O)CCc1ccc(C(F)(F)F)cc1)[C@@H]2c1ccc(C(F)(F)F)cc1 [(+)-c4]
[2]
  Percentage of CCK-8 in a model group (%): 110.28 ± 1.56%
[1]
  activity at 10 µM: 96.1 ± 1.48%

## O=C(CCc1ccc(C(F)(F)F)cc1)O[C@@H]1C(=O)NCCc2c([nH]c3ccc(F)cc23)[C@H]1c1ccc(C(F)(F)F)cc1 [(+)-B3d]
[2]
  Percentage of CCK-8 in a model group (%): 90.33 ± 5.86%
[1]
  activity at 10 µM: 101 ± 4.46%

## CCCn1c2c(c3ccccc31)CCNC(=O)[C@@H](OC(=O)CCc1ccc(C(F)(F)F)cc1)[C@@H]2c1ccc(C(F)(F)F)cc1 [(+)-c3]
[2]
  Percentage of CCK-8 in a model group (%): 110.41 ± 0.54%
[1]
  activity at 10 µM: 81.8 ± 1.11%

## Cn1c2c(c3ccccc31)CCNC(=O)[C@@H](OC(=O)CCc1ccc(C(F)(F)F)cc1)[C@@H]2c1ccc(C(F)(F)F)cc1 [(+)-c1]
[2]
  Percentage of CCK-8 in a model group (%): 105.02 ± 2.84%
[1]
  activity at 10 µM: 83.4%

## O=C1NCCc2c([nH]c3ccc(Br)cc23)[C@@H](c2ccccc2)[C@@H]1O [B001]
[2]
  Percentage of CCK-8 in a model group (%): 108.8 ± 2.72%
[1]
  activity at 10 µM: 71.9 ± 3.5%

## Cc1cccc2c3c([nH]c12)[C@@H](c1ccc(C(F)(F)F)cc1)[C@H](OC(=O)CCc1ccc(C(F)(F)F)cc1)C(=O)NCC3 [(+)-B3g]
[2]
  Percentage of CCK-8 in a model group (%): 101.49 ± 2.57%
[1]
  activity at 10 µM: 78.5%

## O=C(CCc1ccc(C(F)(F)F)cc1)O[C@@H]1C(=O)NCCc2c([nH]c3cccc(F)c23)[C@H]1c1ccc(C(F)(F)F)cc1 [(+)-B3a]
[2]
  Percentage of CCK-8 in a model group (%): 103.22 ± 1.79%
[1]
  activity at 10 µM: 91.2 ± 3.03%

## O=C(CCc1ccc(C(F)(F)F)cc1)O[C@@H]1C(=O)NCCc2c([nH]c3cc(Cl)ccc23)[C@H]1c1ccc(C(F)(F)F)cc1 [(+)-B3f]
[2]
  Percentage of CCK-8 in a model group (%): 96.96 ± 3.85%
[1]
  activity at 10 µM: 90.2 ± 2.92%

## CC(C)(C)OC(=O)N[C@H](CC(=O)O[C@@H]1C(=O)NCCc2c([nH]c3ccccc23)[C@H]1c1ccc(C(F)(F)F)cc1)c1ccc(C(F)(F)F)cc1 [(+)-c5]
[2]
  Percentage of CCK-8 in a model group (%): 110.66 ± 0.55%
[1]
  activity at 10 µM: 71.77 ± 0.56%

## C[C@@H]1C[C@H]2[C@@H]3CCC4=CC(=O)C=C[C@]4(C)[C@@]3(F)[C@@H](O)C[C@]2(C)[C@@]1(O)C(=O)CO [Dexamethasone, dexamethasone, reference compound]
[3]; 5 mg/kg i.p., 6 h after i.p. LPS
  Content of TNF-α in serum (% of Model): 40.09 ± 2.26 % of Model
[3]; 5 mg/kg i.p., 6 h after i.p. LPS, H&E lung sections
  Area percentage of alveolar cells (%): 32.2 ± 0.95 %
[3]; [5]
  Change multiple of IL-1β: 8.65 ± 1.04
  Change multiple of IL-6: 40.56 ± 7.55
  Change multiple of TNF-α: 6.09 ± 0.82
  Change multiple of iNOS: 2.61 ± 0.39
[3]; 5 mg/kg intraperitoneal 3 days, 6 h after i.p. LPS 10 mg/kg
  Lung index (%): 0.649 ± 0.01 %
[3]; [6]
  Body weight (Day 1): 25.11 ± 0.52
  Body weight (Day 2): 26.23 ± 0.38
  Body weight (Day 3): 26.97 ± 0.45
[4]; 5 mg/kg i.p., 6 h after intratracheal LPS
  Content of TNF-α in a lung tissue homogenate (% of Model): 54.882 ± 6.836 % of Model
[4]; 5 mg/kg i.p., 6 h after intratracheal LPS, H&E lung sections
  Area percentage of alveolar cells (%): 34.322 ± 2.452 %
[4]; [7]
  Change multiple of COX-2: 2.75 ± 0.24
  Change multiple of IL-1β: 12.38 ± 1.28
  Change multiple of IL-6: 14.75 ± 2.71
  Change multiple of TNF-α: 18.63 ± 2.26
  Change multiple of iNOS: 10.02 ± 1.78
[4]; 5 mg/kg intraperitoneal 3 days, 6 h after intratracheal LPS
  Lung index (%): 0.591 ± 0.008 %
[4]; [8]
  Body weight (Day 1): 27.51 ± 0.11
  Body weight (Day 2): 28.75 ± 0.17
  Body weight (Day 3): 29.48 ± 0.17

## CCn1c2c(c3ccccc31)CCNC(=O)[C@@H](OC(=O)CCc1ccc(C(F)(F)F)cc1)[C@@H]2c1ccc(C(F)(F)F)cc1 [(+)-c2]
[2]
  Percentage of CCK-8 in a model group (%): 102.17 ± 2.74%
[1]
  activity at 10 µM: 101 ± 1.21%

## O=C1NCCc2c([nH]c3ccccc23)[C@@H](c2ccc(C(F)(F)F)cc2)[C@@H]1O [(+)-3C]
[2]
  Percentage of CCK-8 in a model group (%): 105.39 ± 4.26%
[1]
  activity at 10 µM: 86.4 ± 3.06%

## O=C(CCc1ccc(C(F)(F)F)cc1)O[C@@H]1C(=O)NCCc2c([nH]c3ccc(OC(=O)c4ccc([N+](=O)[O-])cc4)cc23)[C@H]1c1ccc(C(F)(F)F)cc1 [(+)-D7c]
[2]
  Percentage of CCK-8 in a model group (%): 109.17 ± 0.16%
[1]
  activity at 10 µM: 74.5 ± 3.55%
